Test results taken from US20250313533A1, “QUINOLINE CARBOXYLIC ACID ESTER COMPOUND AND PREPARATION METHOD AND USE THEREOF” (priority 2019, published 2025).

Columns and labels:
[1] = system: pathogenic bacteria causing bacterial angular leaf spot in cucumbers; assay: In vitro bactericidal activity, bacterial angular leaf spot in cucumbers; format: cell-based, pseudomonas; settings: read-out: inhibitory rate; for inhibition at 1 ppm: dosage 1 ppm; for inhibition at 5 ppm: dosage 5 ppm
[2] = system: pathogenic bacteria causing bacterial wilt in tobacco; assay: whole plant or invertebrate; format: cell-based, ralstonia; settings: read-out: inhibitory rate
[3] = system: pathogenic bacteria causing black shank in potatoes; assay: In vitro bactericidal activity, black shank in potatoes; format: cell-based; settings: read-out: inhibitory rate; for inhibition at 1 ppm: dosage 1 ppm; for inhibition at 5 ppm: dosage 5 ppm
[4] = system: pathogenic bacteria causing stem rot in sweet potatoes; assay: In vitro bactericidal activity, stem rot in sweet potatoes; format: cell-based, dikia; settings: read-out: inhibitory rate; for inhibition at 1 ppm: dosage 1 ppm; for inhibition at 5 ppm: dosage 5 ppm
[5] = system: pathogenic bacteria causing bacterial blight in rice; assay: whole plant or invertebrate; format: cell-based, xanthomonas; settings: read-out: inhibitory rate
[6] = system: pathogenic bacteria causing fruit blotch in watermelons; assay: In vitro bactericidal activity, fruit blotch in watermelons; format: cell-based, acidovorax; settings: read-out: inhibitory rate; for inhibition at 1 ppm: dosage 1 ppm; for inhibition at 5 ppm: dosage 5 ppm
[7] = system: pathogenic bacteria causing black rot in Chinese cabbages; assay: In vitro bactericidal activity, black rot in Chinese cabbages; format: cell-based, xanthomonas; settings: Xanthomonas, read-out: inhibitory rate; for inhibition at 1 ppm: dosage 1 ppm; for inhibition at 5 ppm: dosage 5 ppm
[8] = system: pathogenic bacteria causing bacterial wilt in cassava; assay: organism not typed; format: cell-based; settings: read-out: inhibitory rate
[9] = system: pathogenic bacteria causing fire blight in pears; assay: In vitro bactericidal activity, fire blight in pears; format: cell-based, erwinia; settings: Erwinia, read-out: inhibitory rate; for inhibition at 1 ppm: dosage 1 ppm; for inhibition at 5 ppm: dosage 5 ppm
black shank in potatoes = assay: Living crops in vivo protective activity, potatoes (root irrigation); settings: Solanum tuberosum, read-out: efficacy against black shank in potatoes; for pest or weed control at 5 ppm: dosage 5 ppm; for pest or weed control at 10 ppm: dosage 10 ppm
Method: Root irrigation was carried out on the potatoes for tests according to the designed concentration of the agents. The dosage for each plant was 200 mL and was kept consistent (also for the control). The black shank bacteria were inoculated on the second day after the application. The results were investigated according to the disease condition.

[10] = system: indoor potted cucumber seedlings; assay: Effect of improving growth and development of crops; format: in vivo; set-up: Rate of growth rate increase (%): concentration or dose not given beside the values; settings: versus blank control; for Rate of chlorophyll content increase (%) / Rate of leaf area increase (%): 14 days after application; for Rate of growth rate increase (%): plant height 14 days after application; for Rate of leaf area increase (%): second leaf
Method: Taking indoor potted cucumber seedlings as an example, the influence of the compound disclosed herein on growth rate of plant height, chlorophyll content, leaf area, etc. of crops was mainly evaluated.
The plant heights of plants before application and 14 days after the application were measured.
The growth rates were calculated according to formula (1)
The rates of the growth rate increase (%) were calculated according to formula (2)
The longitudinal and transverse diameters (i.e., leaf length and leaf width, respectively, wherein the leaf length is the distance from the base to the tip of a leaf, and leaf width is the measured value of the upper shoulder width of the leaf) of the second leaf of plants before application and 14 days after the application were measured.
The leaf areas were calculated according to formula (3)
The leaf area increases were calculated according to formula (4)
The rates of the leaf area increases were calculated according to formula (5)
The chlorophyll contents of leaves were measured by using a chlorophyll measuring instrument (model: SPAD-520 Plus).
The chlorophyll content increases were calculated according to formula (6)
The rates of the chlorophyll content increases were calculated according to formula (7)

cucumber seedlings = assay: Safety for plant growth after application; format: in vivo; settings: dosage 200 ppm
Method in brief: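 Compound applied to indoor cucumber seedlings in pots. Growth then scored: height increase rate, leaf chlorophyll, leaf area.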

[11] = system: bacterial wilt in tobacco; assay: whole plant or invertebrate; settings: Nicotiana tabacum, read-out: efficacy against bacterial wilt in tobacco
[12] = system: stem rot in sweet potatoes; assay: whole plant or invertebrate; settings: read-out: efficacy against stem rot in sweet potatoes
bacterial blight in rice = assay: whole plant or invertebrate; settings: Oryza sativa, read-out: efficacy against bacterial blight in rice
[13] = system: fruit blotch in watermelons; assay: whole plant or invertebrate; settings: read-out: efficacy against fruit blotch in watermelons
[14] = system: soft rot in Chinese cabbages; assay: whole plant or invertebrate; settings: 48 h, read-out: efficacy against soft rot in Chinese cabbages

Row | Compound | inhibition at 1 ppm [1] | inhibition at 5 ppm [1] | inhibition at 1 ppm [2] | inhibition at 5 ppm [2] | inhibition at 1 ppm [3] | inhibition at 5 ppm [3] | inhibition at 1 ppm [4] | inhibition at 5 ppm [4] | inhibition at 1 ppm [5] | inhibition at 5 ppm [5] | inhibition at 1 ppm [6] | inhibition at 5 ppm [6] | inhibition at 1 ppm [7] | inhibition at 5 ppm [7] | inhibition at 1 ppm [8] | inhibition at 5 ppm [8] | inhibition at 1 ppm [9] | inhibition at 5 ppm [9] | pest or weed control at 5 ppm (black shank in potatoes) | pest or weed control at 10 ppm (black shank in potatoes) | other results
1 | CCOc1ccc2c(=O)c(C(=O)OCCOC)cn(C3CC3)c2c1 [Compound 342] | ≥ 90% | ≥ 90% | ≥ 90% | ≥ 90% | ≥ 90% | ≥ 90% | ≥ 90% | ≥ 90% | ≥ 90% | ≥ 90% | ≥ 90% | ≥ 90% | ≥ 90% | ≥ 90% | ≥ 90% | ≥ 90% | ≥ 90% | ≥ 90% | ≥ 90% | ≥ 90% | Rate of chlorophyll content increase (%) [10]: 9%; Rate of growth rate increase (%) [10]: 9%; Rate of leaf area increase (%) [10]: 11%; safety for plant growth (discoloration, necrosis, wilt, malformation) (cucumber seedlings): safe for plant growth; pest or weed control at 5 ppm [11]: ≥ 90%; pest or weed control at 10 ppm [11]: ≥ 90%; pest or weed control at 5 ppm [12]: ≥ 90%; pest or weed control at 10 ppm [12]: ≥ 90%; pest or weed control at 5 ppm (bacterial blight in rice): ≥ 90%; pest or weed control at 10 ppm (bacterial blight in rice): ≥ 90%; pest or weed control at 5 ppm [13]: ≥ 90%; pest or weed control at 10 ppm [13]: ≥ 90%; pest or weed control at 5 ppm [14]: ≥ 90%; pest or weed control at 10 ppm [14]: ≥ 90%
2 | CC(C)(C)Oc1cc2c(cc1F)c(=O)c(C(=O)OCCO)cn2C1CC1 [Compound 270] | ≥ 90% | ≥ 90% | ≥ 90% | ≥ 90% | ≥ 90% | ≥ 90% | ≥ 90% | ≥ 90% | ≥ 90% | ≥ 90% | ≥ 90% | ≥ 90% | ≥ 90% | ≥ 90% | ≥ 90% | ≥ 90% | ≥ 90% | ≥ 90% | ≥ 80% | ≥ 90% | Rate of chlorophyll content increase (%) [10]: 10%; Rate of growth rate increase (%) [10]: 9%; Rate of leaf area increase (%) [10]: 12%; safety for plant growth (discoloration, necrosis, wilt, malformation) (cucumber seedlings): safe for plant growth; pest or weed control at 5 ppm [11]: ≥ 90%; pest or weed control at 10 ppm [11]: ≥ 90%; pest or weed control at 5 ppm [12]: ≥ 90%; pest or weed control at 10 ppm [12]: ≥ 90%; pest or weed control at 5 ppm (bacterial blight in rice): ≥ 90%; pest or weed control at 10 ppm (bacterial blight in rice): ≥ 90%; pest or weed control at 5 ppm [13]: ≥ 90%; pest or weed control at 10 ppm [13]: ≥ 90%; pest or weed control at 5 ppm [14]: ≥ 90%; pest or weed control at 10 ppm [14]: ≥ 90%
3 | CCOc1cc2c(cc1F)c(=O)c(C(=O)OCCCO)cn2C1CC1 [Compound 309] | ≥ 90% | ≥ 90% | ≥ 90% | ≥ 90% | ≥ 90% | ≥ 90% | ≥ 90% | ≥ 90% | ≥ 90% | ≥ 90% | ≥ 90% | ≥ 90% | ≥ 90% | ≥ 90% | ≥ 90% | ≥ 90% | ≥ 90% | ≥ 90% | ≥ 90% | ≥ 90% | Rate of chlorophyll content increase (%) [10]: 16%; Rate of growth rate increase (%) [10]: 12%; Rate of leaf area increase (%) [10]: 15%; safety for plant growth (discoloration, necrosis, wilt, malformation) (cucumber seedlings): safe for plant growth; pest or weed control at 5 ppm [11]: ≥ 90%; pest or weed control at 10 ppm [11]: ≥ 90%; pest or weed control at 5 ppm [12]: ≥ 90%; pest or weed control at 10 ppm [12]: ≥ 90%; pest or weed control at 5 ppm (bacterial blight in rice): ≥ 90%; pest or weed control at 10 ppm (bacterial blight in rice): ≥ 90%; pest or weed control at 5 ppm [13]: ≥ 90%; pest or weed control at 10 ppm [13]: ≥ 90%; pest or weed control at 5 ppm [14]: ≥ 90%; pest or weed control at 10 ppm [14]: ≥ 90%
